Experimental data as given in US7439024B2, “Methods and kits for diagnosing or monitoring autoimmune and chronic inflammatory diseases” (The United States of America as represented by the …, priority 2005, dated 2008).

Experiments:
[1] = tested on: CD70; test: CD70 expression on CD4+ cells of PBMCs cultured with medications commonly used to treat lupus (flow cytometry); format: cell-based, human; conditions: PBMCs with or without PHA, 24 hours, graded concentrations 1-100 μM
[2] = tested on: autologous B cells; test: T cell and B cell costimulation assay, IgG ELISA of supernatants; format: cell-based, human; conditions: P<0.05; for IgG produced by B cells cultured with drug-treated cloned T cells vs untreated T cells: TT48E cloned CD4+ T cell line treated 3 days, autologous B cells, without PWM, FIG. 4; for IgG secreted by B cells cultured with drug-treated T cells vs same numbers of untreated T cells: unfractionated PHA-stimulated T cells treated 3 days, cultured with PWM and autologous B cells 8 days, FIG. 3
Method: T cell and B cell costimulation assays. E-rosette-purified T cells were stimulated for 16 hours with PHA and then treated with the indicated chemicals for an additional 72 hours as described above. Where indicated, T cell subsets were isolated by negative selection using magnetic beads (Miltenyi). B cells (1-4×10^5) enriched by negative selection using magnetic beads (Miltenyi) and assessed to be 70-85% pure using PE-conjugated anti-human CD21 (PHARMINGEN), were added to washed, drug-treated autologous T cells, at T cell to B cell ratios of 4:1, 2:1, 1:1, 1:2, and 1:4. Where indicated, 0.625 μg/ml of PWM (ALDRICH) was added. The cells were cultured in RPMI 1640/10% FBS/penicillin/streptomycin for 8 days in 96-well roundbottomed plates (Costar) containing a 200 μl total volume (performed in duplicate). Cells were supplemented with 50 μl of medium on day 4. Where indicated, 1 μg/ml of anti-CD70 monoclonal antibody (HNE51) (DAKO) was added to the cultures. TT48E cells were similarly stimulated with PHA (1 μg/ml) for 18 hours, treated with the indicated drugs for 3 days, then similarly cultured with autologous B cells for 8 days. Where indicated, the TT48E cells were pretreated with 1 μg/ml of anti-CD70 for 30 minutes at […], then washed and added to the B cells, according to protocols described by others (See, e.g., Kobata et at., Proc Natl Acad Sci U S A 92, 11249 (1995)).
IgG enzyme-linked immunosorbent assays (ELISAs). IgG was measured in the supernatants of the T cell-B cell cultures (See, e.g., Richardson et al., Clin Immunol Immunopathol 55, 368 (1990)). Briefly, 96-well flatbottomed polystyrene plates (Costar) were coated with 1 μg/ml of goat anti-human IgG (Southern Biotech) and washed. Unreacted combining sites were sealed with 3% bovine serum albumin (BSA) in phosphate buffered saline (PBS) by incubation at 4° C. for 16 hours. Pooled supernatants from duplicate wells were diluted 1:5 in PBS/1% BSA, and 50 μl was added to the wells. Serial dilutions of purified human IgG (Sigma) were used for quantitation. Following incubation and washing, goat anti-human IgG conjugated with horseradish peroxidase (Southern Biotech) was added, and cells were incubated for 2 hours at room temperature. The wells were washed 3 times with PBS/0.1% Tween 20, and color was developed using Sigma Fast tablets. The plates were read at 405 nm using a SpectraMax spectrophotometer (Molecular Devices). All determinations were performed in quadruplicate.
Since CD70 participates in T cell-dependent B cell stimulation (See e.g., Kobata et al., Proc Natl Acad Sci USA 92, 11249 (1995)), the effects of DNA methylation inhibitors on CD70-dependent B cell help were examined. […] Eight days later, total IgG in the supernatants was measured by ELISA. […]

[3] = tested on: CD70; conditions: PHA-stimulated purified T cells, 3 days after treatment, oligonucleotide arrays, 2 independent experiments, mean±SEM
[4] = tested on: CD70 mRNA; test: Real time RT-PCR of CD70 transcripts relative to β-actin in drug-treated T cells; format: cell-based, human; conditions: for CD70 transcripts relative to β-actin, normalized to the untreated control: CD4+ T cells stimulated with anti-CD3 + anti-CD28, 5 μm 5-azaC, 50 μm Pca, 20 μm Hyd, 40 μm U0126 or 25 μm PD98059 for 3 days, FIG. 9; for expression of CD70 mRNA relative to that of beta-actin vs untreated cells: T cells, real time RT-PCR, FIG. 1B
Method: Cells and cell culture. Peripheral blood mononuclear cells (PBMCs) were isolated by density-gradient centrifugation. T cells were then isolated by E-rosetting (See, e.g., Golbus et at., Clin Immunol Immunopathol 46, 129 (1988)). […] Where indicated, the cells were cultured in RPMI 1640/10% fetal calf serum (FCS) supplemented with interleukin-2 (IL-2) (See, e.g., Richardson et at., Clin Immunol Immunopathol 55, 368 (1990)), in round-bottomed 5-ml culture tubes (FALCON). Cells were stimulated with 1 μg/ml of PHA (REMEL) for 16 hours, then cultured in 24-well plates at a density of 1×10^6 for an additional 72 hours in the presence of 2-deoxy-5-azaC or 5-azaC (SIGMA-ALDRICH), procainamide (SIGMA-ALDRICH), hydralazine (SIGMA-ALDRICH), or the MEK inhibitors U0126 (PROMEGA) or PD98059 (PROMEGA […]). In other studies, PHA-stimulated PBMCs were cultured in RPMI 1640/10% FCS and treated with indomethacin, chloroquine, hydrocortisone, and 6-mercaptopurine (6-MP) (all from SIGMA-ALDRICH). TT48E, a cloned, CD4+, tetanus toxoid-reactive human T cell line, was cultured as previously described (Comacchia et al., J Immunol 140, 2197 (1988); Richardson et al., Arthritis Rheum 35, 647 (1992)).
(§1) In other studies, T cells were isolated by negative selection using magnetic beads and instructions provided by the manufacturer (Pan T cell Isolation Kit, Miltenyi), and the CD4+ or CD8+ subset was similarly isolated by magnetic cell sorting. […] Purified human CD4+ T cells were first stimulated with plate bound anti-CD3 and soluble anti-CD28.

[5] = tested on: CD70 promoter; test: Bisulfite sequencing of the CD70 promoter in drug-treated CD4+ T cells; format: cell-based, human; conditions: for methylation of the 10 CG pairs in the CD70 promoter region between −515 and −423: CD4+ T cells stimulated with anti-CD3 and anti-CD28, vs stimulated untreated controls, FIGS. 13, 14
Text: as §1
Bisulfite sequencing. The putative CD70 promoter was identified using the published CD70 cDNA sequence and Tfsitescan software. Deoxycytosine (dC) and deoxymethylcytosine (d^mC) bases in the gene promoter and 5′ flanking sequences were identified by bisulfite treatment of purified DNA followed by nested PCR amplification of 3 sequential fragments to span the entire region. The primers were designed to avoid CG pairs and to account for the conversion of dC to dU by the bisulfite. EcoRI sites were added to the forward primers, and XbaI to the reverse, to facilitate cloning. The amplified fragments were then cloned into PBS+, and 5 clones sequenced for each fragment. The primers used were: […]
The effect of lupus and DNA methylation inhibitors on a regulatory element in the CD70 promoter was examined. DNA was isolated from the CD4+ T cells of 7 healthy individuals or 6 lupus patients, bisulfite treated, the region from −466-−515, containing 6 CG pairs was amplified by PCR, and 5 fragments sequenced from each individual. The average methylation status of the 6 CG pairs for healthy versus lupus individuals is shown (FIG. 8, NI and Lupus, respectively). CD4+ T cells from 5 individuals were also stimulated with PHA, treated with the irreversible DNA methyltransferase inhibitor 5-azacytidine (5-azaC), and the methylation status of the 6 CG pairs similarly analyzed from the 25 fragments sequenced (FIG. 8, 5-azaC). […] Results are presented as the mean±SEM of the average methylation of the 6 CG pairs, measured from the 10-35 determinations/group.
The effects of the DNA methylation inhibitors on the methylation status of this region were then compared. […] Again, 5 cloned fragments were sequenced from each control, for a total of 35 determinations per CG pair. […] FIG. 14 compares the average methylation for the 10 CG pairs (−515 to −423) in the T cells treated with DNA methylation inhibitors relative to stimulated, untreated controls.

[6] = tested on: CD70; test: Flow cytometric analysis of CD70 expression on T cells treated with DNA methylation inhibitors; format: cell-based, human; conditions: for increase of CD70 expression on T cell clone TT48E: 3 days, 6 serial experiments; for increase of CD70 MFI on CD4+ T cells: CD4+ T cell subset; for CD70 expression on PHA-stimulated T cells, treated vs untreated: polyclonal T cells, 1 μM 5-azaC 3 days, procainamide increasing dosage, 25 μM PD98059 and dose response, 40 μM U0126 and dose response, FIG. 2; for CD70 expression on CD4+ T cells: summary statement in Example 8

SMILES | CD70 expression on stimulated or unstimulated CD4+ cells [1] | CD70 transcripts relative to β-actin, normalized to the untreated control [4] | methylation of the 10 CG pairs in the CD70 promoter region between −515 and −423 [5] | CD70 expression on PHA-stimulated T cells, treated vs untreated [6] | CD70 expression on CD4+ T cells [6] | also measured
C[C@]12CCC(=O)C=C1CC[C@@H]1[C@@H]2[C@@H](O)C[C@@]2(C)[C@H]1CC[C@]2(O)C(=O)CO [hydrocortisone] | No increase in CD70 expression |  |  |  |  | 
Nc1ncn([C@@H]2O[C@H](CO)[C@@H](O)[C@H]2O)c(=O)n1 [5-azaC, 5-azacytidine] |  | increase CD70 transcripts | hypomethylated compared to controls | small increase | increased CD70 expression | IgG produced by B cells cultured with drug-treated cloned T cells vs untreated T cells [2]: greater amounts of IgG; IgG secreted by B cells cultured with drug-treated T cells vs same numbers of untreated T cells [2]: greater amounts of IgG; CD70 expression increase in treated cells relative to untreated controls [3]: > 2 fold; expression of CD70 mRNA relative to that of beta-actin vs untreated cells [4]: increased the expression of CD70 mRNA; increase of CD70 expression on T cell clone TT48E ([6]; 1 μM, P=0.048): 1.69±0.33 fold; increase of CD70 MFI on CD4+ T cells ([6]; 1 μM, P=0.025, n=5): 1.53±0.45 fold; concentration producing the greatest effect on CD70 expression ([6]; range of 5-azaC concentrations, P=0.001 overall, n=5 experiments, FIG. 2B): 1 µM
N#CC(=C(/N)Sc1ccccc1N)/C(C#N)=C(\N)Sc1ccccc1N [U0126] |  | increase CD70 transcripts | appears to demethylate | increase in CD70 expression with treatment | increased CD70 expression | IgG produced by B cells cultured with drug-treated cloned T cells vs untreated T cells [2]: greater amounts of IgG; IgG secreted by B cells cultured with drug-treated T cells vs same numbers of untreated T cells [2]: greater amounts of IgG; expression of CD70 mRNA relative to that of beta-actin vs untreated cells [4]: increased the expression of CD70 mRNA; increase of CD70 expression on T cell clone TT48E ([6]; 40 μM, P=0.004): 1.87±0.37 fold; increase of CD70 MFI on CD4+ T cells ([6]; 40 μM, P=0.039, n=4): 3.20±0.44 fold; increase of CD70 MFI in T cells treated with U0126 (FIG. 2I) ([6]; P=0.085, stated in the passage on the smaller CD8+ increase): 2.83±0.95 fold
CCN(CC)CCCC(C)Nc1ccnc2cc(Cl)ccc12 (stereo not drawn) [chloroquine] | No increase in CD70 expression |  |  |  |  | 
COc1cccc(-c2cc(=O)c3ccccc3o2)c1N [PD98059] |  | increase CD70 transcripts | appears to demethylate | increase in CD70 expression with treatment | increased CD70 expression | increase of CD70 MFI on CD4+ T cells ([6]; 25 μM, P=0.032, n=3): 1.63±0.43 fold
CCN(CC)CCNC(=O)c1ccc(N)cc1 [procainamide] |  | increase CD70 transcripts | appears to demethylate | increase in the ratio of the mean fluorescence intensity (MFI) of CD70 expression | increased CD70 expression | methylation status of the CD70 promoter region from −466-−515 containing 6 CG pairs ([5]; PHA-stimulated CD4+ T cells, FIG. 8): demethylate this region
Nc1ncn([C@H]2C[C@H](O)[C@@H](CO)O2)c(=O)n1 [2-deoxy-5-azaC] |  |  |  |  |  | CD70 expression increase in treated cells relative to untreated controls [3]: 2.6±0.6 fold
COc1ccc2c(c1)c(CC(=O)O)c(C)n2C(=O)c1ccc(Cl)cc1 [indomethacin] | No increase in CD70 expression |  |  |  |  | 
Sc1ncnc2nc[nH]c12 [6-MP, 6-mercaptopurine] | No increase in CD70 expression |  |  |  |  | 
